The text below walks through data of PubChem BioAssay AID248 (DTP/NCI, 2004).

For this assay, the system named is L1210 leukemia ip in BDF1 mice, survival T/C. The assay is described as follows: NCI In Vivo Anticancer Drug Screen. Data for tumor model L1210 Leukemia (intraperitoneal) in B6D2F1 (BDF1) mice. The following applies: endpoint: mean survival time, higher = longer survival. Put shortly: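 Each compound was tested against a transplantable tumor grown in mice. The endpoint was survival, with treated animals benchmarked against vehicle controls as a simple ratio.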

The mark [1] stands for this setting: dose: 100.0 mg/kg/injection, schedule: Q01DX001 (ip), vehicle: saline.
Setting [2] is: dose: 20.0 mg/kg/injection, schedule: Q01DX009 (ip), vehicle: saline.

“And” between values parts separate entries of the source, which are not always exact repeats. Equal entries are not always repeated. Inconclusive results and toxic doses are left out.

Consider `CC1CCC2(C(=O)O)CCC3(C)C(=CCC4C5(C)CC(O)C(O)C(C)(C(=O)O)C5CCC43C)C2C1(C)O` (stereo not given), for which the T/C is, setting by setting: (dose: 100.0 mg/kg/injection, schedule: Q01DX001 (ip), vehicle: alkali diluted with saline) 94 % of control; (dose: 100.0 mg/kg/injection, schedule: Q01DX001 (ip), vehicle: saline with Tween-80) 97 % of control; (dose: 200.0 mg/kg/injection, schedule: Q01DX001 (ip), vehicle: alkali diluted with saline) 100 % of control; (dose: 200.0 mg/kg/injection, schedule: Q01DX001 (ip), vehicle: saline with Tween-80) 89 % of control.
For the compound `CCOC(=O)C(OCC)c1ccccc1` (stereo not given), the T/C runs as follows: (dose: 100.0 mg/kg/injection, schedule: Q04DX003 (ip), vehicle: saline) 97 % of control; (dose: 200.0 mg/kg/injection, schedule: Q04DX003 (ip), vehicle: saline) 101 % of control; (dose: 400.0 mg/kg/injection, schedule: Q04DX003 (ip), vehicle: saline) 89 % of control.
Consider `CN(C)c1ccc(/C=C(/NC(=O)c2ccccc2)C(N)=O)cc1`, for which the T/C is 94 % of control (dose: 100.0 mg/kg/injection, schedule: Q04DX003 (ip), vehicle: Klucel (hydroxypropylcellulose) (HPC)); 96 % of control (dose: 200.0 mg/kg/injection, schedule: Q04DX003 (ip), vehicle: Klucel (hydroxypropylcellulose) (HPC)); 94 % of control (dose: 400.0 mg/kg/injection, schedule: Q04DX003 (ip), vehicle: Klucel (hydroxypropylcellulose) (HPC)).
Turning to `Cc1cnc(C)c(OCCN2CC2)n1`, the T/C under setting [1] is 93 % of control.
For the compound `COc1cc(C=Nc2ccc(-c3nc(Cc4ccccc4)sc3C)cc2)ccc1N(CCCl)CCCl`, the T/C (dose: 4.0 mg/kg/injection, schedule: Q01DX009 (ip), vehicle: saline) is 102 % of control; the T/C (dose: 6.0 mg/kg/injection, schedule: Q01DX009 (ip), vehicle: Klucel (hydroxypropylcellulose) (HPC)) was 109 % of control; the T/C (dose: 6.0 mg/kg/injection, schedule: Q01DX009 (ip), vehicle: saline) was 103 % of control; the T/C (dose: 8.0 mg/kg/injection, schedule: Q01DX009 (ip), vehicle: Klucel (hydroxypropylcellulose) (HPC)) is 112 % of control; the T/C (dose: 8.0 mg/kg/injection, schedule: Q01DX009 (ip), vehicle: carboxymethylcellulose (CMC)) was 124 % of control; the T/C (dose: 8.0 mg/kg/injection, schedule: Q01DX009 (ip), vehicle: saline) was 102 % of control. The T/C reads like this: (dose: 13.0 mg/kg/injection, schedule: Q01DX001 (ip), vehicle: Klucel (hydroxypropylcellulose) (HPC)) 109 % of control; (dose: 13.0 mg/kg/injection, schedule: Q01DX001 (ip), vehicle: saline) 93 % of control; (dose: 13.0 mg/kg/injection, schedule: Q01DX009 (ip), vehicle: saline) 100 % of control; (dose: 20.0 mg/kg/injection, schedule: Q01DX001 (ip), vehicle: Klucel (hydroxypropylcellulose) (HPC)) 113 % of control; (dose: 20.0 mg/kg/injection, schedule: Q01DX001 (ip), vehicle: saline) 91 % of control; (dose: 20.0 mg/kg/injection, schedule: Q01DX009 (ip), vehicle: carboxymethylcellulose (CMC)) 106 % of control. For the same compound, the T/C by setting is: under setting [2], 105 % of control; (dose: 30.0 mg/kg/injection, schedule: Q01DX001 (ip), vehicle: Klucel (hydroxypropylcellulose) (HPC)) 124 % of control; (dose: 30.0 mg/kg/injection, schedule: Q01DX001 (ip), vehicle: saline) 102 % of control; (dose: 30.0 mg/kg/injection, schedule: Q01DX009 (ip), vehicle: Klucel (hydroxypropylcellulose) (HPC)) 153 % of control; (dose: 44.0 mg/kg/injection, schedule: Q01DX001 (ip), vehicle: carboxymethylcellulose (CMC)) 122 % of control; (dose: 45.0 mg/kg/injection, schedule: Q01DX001 (ip), vehicle: Klucel (hydroxypropylcellulose) (HPC)) 121 % of control. The T/C by setting is: (dose: 45.0 mg/kg/injection, schedule: Q01DX001 (ip), vehicle: carboxymethylcellulose (CMC)) 166 % of control; (dose: 45.0 mg/kg/injection, schedule: Q01DX001 (ip), vehicle: saline) 110 % of control; (dose: 66.0 mg/kg/injection, schedule: Q01DX001 (ip), vehicle: saline) 106 % of control; under setting [1], 112 % of control and 124 % of control; (dose: 150.0 mg/kg/injection, schedule: Q01DX001 (ip), vehicle: carboxymethylcellulose (CMC)) 108 % of control; (dose: 200.0 mg/kg/injection, schedule: Q01DX001 (ip), vehicle: carboxymethylcellulose (CMC)) 97 % of control.
For the compound `O=C(Nc1cccc(C2=NCCN2)c1)c1ccc(C(=O)Nc2cccc(C3=NCCN3)c2)cc1`, the T/C reads like this: (dose: 2.5 mg/kg/injection, schedule: Q01DX Z (ip), vehicle: saline) 95 % of control; (dose: 5.0 mg/kg/injection, schedule: Q01DX Z (ip), vehicle: saline) 111 % of control.
In the case of `N#CSCc1ccccc1Cl`, the T/C is 104 % of control (dose: 6.25 mg/kg/injection, schedule: Q04DX003 (ip), vehicle: Klucel (hydroxypropylcellulose) (HPC)); 104 % of control (dose: 12.5 mg/kg/injection, schedule: Q04DX003 (ip), vehicle: Klucel (hydroxypropylcellulose) (HPC)); 93 % of control (dose: 25.0 mg/kg/injection, schedule: Q04DX003 (ip), vehicle: Klucel (hydroxypropylcellulose) (HPC)); 96 % of control (dose: 50.0 mg/kg/injection, schedule: Q04DX003 (ip), vehicle: Klucel (hydroxypropylcellulose) (HPC)).
As to `CCCCCCCC(=O)Nc1cc(C(F)(F)F)ccc1Cl`, the T/C is, setting by setting: (dose: 100.0 mg/kg/injection, schedule: Q04DX003 (ip), vehicle: saline with Tween-80) 92 % of control; (dose: 200.0 mg/kg/injection, schedule: Q04DX003 (ip), vehicle: saline with Tween-80) 98 % of control; (dose: 400.0 mg/kg/injection, schedule: Q04DX003 (ip), vehicle: saline with Tween-80) 87 % of control.
With `O=C1OC(=O)c2ccc3c4ccc5c6c(ccc(c7ccc1c2c73)c64)C(=O)OC5=O`, the T/C (dose: 100.0 mg/kg/injection, schedule: Q01DX001 (ip), vehicle: Klucel (hydroxypropylcellulose) (HPC)) was 97 % of control; the T/C (dose: 200.0 mg/kg/injection, schedule: Q01DX001 (ip), vehicle: Klucel (hydroxypropylcellulose) (HPC)) is 97 % of control; the T/C (dose: 400.0 mg/kg/injection, schedule: Q01DX001 (ip), vehicle: Klucel (hydroxypropylcellulose) (HPC)) is 95 % of control.
As for `CCCCCCC(/C=N\NC(=O)c1cccc2ccccc12)=C\c1ccccc1`, for the setting “dose: 200.0 mg/kg/injection, schedule: Q01DX001 (ip), vehicle: saline”, the T/C was 97 % of control.
Turning to `CCCCCCCCCCCC[N+](C)(C)C`, the T/C is 104 % of control (dose: 10.0 mg/kg/injection, schedule: Q01DX009 (ip), vehicle: saline) and 105 % of control under setting [2].
